Data from patent publication US8609858B2, “Spiro derivatives of parthenin as novel anticancer agents” (Council of Scientific & Industrial Research, priority 2008, dated 2013).

Columns and labels:
[1] = test system: SW-620; assay: In vitro cytotoxicity screening (sulphodamine B dye), SW-620; format: cell-based; settings: Homo sapiens; SW-620 colon cancer cell line
Experimental: (§1) Cells at sub confluent stage were harvested from the flask by treatment with trypsin (0.5% in PBS containing 0.02% EDTA) for determination of cytotoxicity. […] The cell suspensions of required cell density were prepared in complete growth medium with gentamycin (50 μg/ml) for determination of cytotoxicity. The cells (100 μl/well) were inoculated in 96 well tissue culture plates. The cells were allowed to grow for 24 hrs temperature of 37° C. and in a humidified atmosphere of 5% CO2 in air. Stock solution of (20 mM) of test material was prepared in DMSO. The stock solution was serially diluted with complete growth medium containing 50 μg/ml of gentamycin to obtain […] working test solutions of 1., 2, 5, 10, 50 and 100 μM.
(§2) The media were supplemented with FCS (10%), penicillin (100 Units/ml), streptomycin (100 μg/ml) and glutamine (2 mM) and cells were grown in CO2 incubator (Hera cell, Heraeus, USA) at 37° C. with 90% humidity and 5% CO2.

[2] = test system: PC-3; assay: In vitro cytotoxicity screening (sulphodamine B dye), PC-3; format: cell-based; settings: Homo sapiens; PC-3 prostate cancer cell line
Experimental: as §1, §2

[3] = test system: DU-145; assay: In vitro cytotoxicity screening (sulphodamine B dye), DU-145; format: cell-based; settings: Homo sapiens; DU-145 prostate cancer cell line
Experimental: as §1, §2

| SMILES | melting point | IC50 [1] | IC50 [2] | IC50 [3] |
| --- | --- | --- | --- | --- |
| COc1ccc(N2CC23C(=O)O[C@@H]2[C@H]3CC[C@H](C)[C@]3(O)C=CC(=O)[C@@]23C)cc1 (some centres unmarked) | 245 to 247 °C | – | – | – |
| Cc1ccc(N2CC23C(=O)O[C@@H]2[C@H]3CC[C@H](C)[C@]3(O)C=CC(=O)[C@@]23C)cc1 (some centres unmarked) | 241 to 242 °C | – | – | – |
| COc1ccc(C2=NOC3(C2)C(=O)O[C@@H]2[C@H]3CC[C@H](C)[C@]3(O)C=CC(=O)[C@@]23C)cc1 (some centres unmarked) [Compound -1] | – | 41 µM | 35 µM | 20 µM |
| C[C@H]1CC[C@@H]2[C@@H](OC(=O)C23CC(c2ccc(Cl)cc2)=NO3)[C@]2(C)C(=O)C=C[C@@]12O (some centres unmarked) [Compound -2] | 138.2 °C | 51 µM | 49 µM | 43 µM |
| C[C@H]1CC[C@@H]2[C@@H](OC(=O)C23CC(c2ccc(N(C)C)cc2)=NO3)[C@]2(C)C(=O)C=C[C@@]12O (some centres unmarked) [Compound -4] | – | – | 6.33 µM | – |
| C[C@H]1CC[C@@H]2[C@@H](OC(=O)C23CC(c2cccc([N+](=O)[O-])c2)=NO3)[C@]2(C)C(=O)C=C[C@@]12O (some centres unmarked) [Compound -11] | – | 49 µM | 55 µM | 51 µM |
| C[C@H]1CC[C@@H]2[C@@H](OC(=O)C23CC(c2cccs2)=NO3)[C@]2(C)C(=O)C=C[C@@]12O (some centres unmarked) [Compound -12] | – | 34 µM | 29 µM | 19 µM |
| Cc1cccc(C2=NOC3(C2)C(=O)OC2C3CC[C@H](C)[C@]3(O)C=CC(=O)[C@@]23C)c1 (some centres unmarked) [Compound -14] | – | – | 66.6 µM | – |
| C[C@H]1CC[C@@H]2[C@@H](OC(=O)C23CN3c2cccc(Cl)c2)[C@]2(C)C(=O)C=C[C@@]12O (some centres unmarked) [Compound -35] | – | 48.4 µM | 86.1 µM | 39.5 µM |
| COc1ccccc1N1CC12C(=O)O[C@@H]1[C@H]2CC[C@H](C)[C@]2(O)C=CC(=O)[C@@]12C (some centres unmarked) [Compound -37] | – | 47.3 µM | 52 µM | – |
| Cc1cccc(N2CC23C(=O)O[C@@H]2[C@H]3CC[C@H](C)[C@@]3(O)C=CC(=O)[C@@]23C)c1 (some centres unmarked) [Compound -38] | – | 15 µM | 61.5 µM | 62.5 µM |
| C[C@H]1CC[C@@H]2[C@@H](OC(=O)C23CN3c2cccc([N+](=O)[O-])c2)[C@]2(C)C(=O)C=C[C@@]12O (some centres unmarked) [Compound -40] | 241 to 242 °C | 61 µM | 10.1 µM | – |
| Cc1ccccc1N1CC12C(=O)O[C@@H]1[C@H]2CC[C@H](C)[C@]2(O)C=CC(=O)[C@@]12C (some centres unmarked) [Compound -43] | – | 22 µM | 12.5 µM | – |

Further lines, with some results ahead:

| melting point | SMILES | IC50 [1] | IC50 [2] | IC50 [3] |
| --- | --- | --- | --- | --- |
| 129.2 °C | C[C@H]1CC[C@@H]2[C@@H](OC(=O)C23CC(c2ccc(O)cc2)=NO3)[C@]2(C)C(=O)C=C[C@@]12O (some centres unmarked) [Compound -5] | 89 µM | – | 93 µM |
| 277 °C | Cc1ccccc1C1=NOC2(C1)C(=O)O[C@@H]1[C@H]2CC[C@H](C)[C@]2(O)C=CC(=O)[C@@]12C (some centres unmarked) [Compound -13] | 5 µM | 10 µM | 12 µM |
| 193 °C | C[C@H]1CC[C@@H]2[C@@H](OC(=O)C23CC(c2ccc(F)cc2)=NO3)[C@]2(C)C(=O)C=C[C@@]12O (some centres unmarked) [Compound -15] | 3.6 µM | 27 µM | 13 µM |
| 147 °C | C[C@H]1CC[C@@H]2[C@@H](OC(=O)C23CC(c2ccc(C#N)cc2)=NO3)[C@]2(C)C(=O)C=C[C@@]12O (some centres unmarked) [Compound -16] | 53 µM | 32 µM | 26 µM |
| 183 °C | C[C@H]1CC[C@@H]2[C@@H](OC(=O)C23CC(c2ccc(Cl)cc2)N(c2ccccc2)O3)[C@]2(C)C(=O)C=C[C@@]12O (some centres unmarked) [Compound -18] | 7.5 µM | 7.8 µM | 7 µM |
| 181 °C | Cc1ccccc1C1CC2(ON1c1ccccc1)C(=O)O[C@@H]1[C@H]2CC[C@H](C)[C@]2(O)C=CC(=O)[C@@]12C (some centres unmarked) [Compound -19] | 6 µM | 6.4 µM | 5.6 µM |
| 185 °C | C[C@H]1CC[C@@H]2[C@@H](OC(=O)C23CC(c2ccc(Br)cc2)N(c2ccccc2)O3)[C@]2(C)C(=O)C=C[C@@]12O (some centres unmarked) [Compound -20] | 6.7 µM | 5.8 µM | 6.3 µM |
| 114 °C | Cc1ccc(C2CC3(ON2c2ccccc2)C(=O)O[C@@H]2[C@H]3CC[C@H](C)[C@]3(O)C=CC(=O)[C@@]23C)cc1 (some centres unmarked) [Compound -21] | 8.7 µM | 8.5 µM | 8.1 µM |
| 170 °C | C[C@H]1CC[C@@H]2[C@@H](OC(=O)C23CC(c2ccccc2)N(c2ccccc2)O3)[C@]2(C)C(=O)C=C[C@@]12O (some centres unmarked) [Compound -23] | 5.8 µM | 5.7 µM | 5.6 µM |
| 154 °C | C[C@H]1CC[C@@H]2[C@@H](OC(=O)C23CC(c2ccc(F)cc2)N(c2ccccc2)O3)[C@]2(C)C(=O)C=C[C@@]12O (some centres unmarked) [Compound -24] | 7.3 µM | 5.7 µM | 6.4 µM |
| 96 °C | COc1ccc(C2CC3(ON2c2ccccc2)C(=O)O[C@@H]2[C@H]3CC[C@H](C)[C@]3(O)C=CC(=O)[C@@]23C)cc1Br (some centres unmarked) [Compound -25] | 6.8 µM | 5.7 µM | 6.3 µM |
| 116 °C | C[C@H]1CC[C@@H]2[C@@H](OC(=O)C23CC(c2ccc(C#N)cc2)N(c2ccccc2)O3)[C@]2(C)C(=O)C=C[C@@]12O (some centres unmarked) [Compound -26] | 4.8 µM | 4.8 µM | 5 µM |
| 197 °C | COc1ccc(Br)cc1C1CC2(ON1c1ccccc1)C(=O)O[C@@H]1[C@H]2CC[C@H](C)[C@]2(O)C=CC(=O)[C@@]12C (some centres unmarked) [Compound -27] | 6.1 µM | 8.2 µM | 7.8 µM |
| 99 °C | COc1ccc(C2CC3(ON2c2ccccc2)C(=O)O[C@@H]2[C@H]3CC[C@H](C)[C@]3(O)C=CC(=O)[C@@]23C)c(OC)c1 (some centres unmarked) [Compound -28] | 7.5 µM | 11 µM | 11 µM |
| 119 °C | COc1cc(C2CC3(ON2c2ccccc2)C(=O)O[C@@H]2[C@H]3CC[C@H](C)[C@]3(O)C=CC(=O)[C@@]23C)cc(OC)c1OC (some centres unmarked) [Compound -29] | 5.7 µM | 8.6 µM | 5.6 µM |
| 108 °C | Cc1cc(C2CC3(ON2c2ccccc2)C(=O)O[C@@H]2[C@H]3CC[C@H](C)[C@]3(O)C=CC(=O)[C@@]23C)cc(C)c1O (some centres unmarked) [Compound -30] | – | – | – |
| 180 °C | C[C@H]1CC[C@@H]2[C@@H](OC(=O)C23CC(c2cccc(Cl)c2)N(c2ccccc2)O3)[C@]2(C)C(=O)C=C[C@@]12O (some centres unmarked) [Compound -31] | 6.1 µM | 8.2 µM | 7.4 µM |
| 158 °C | C[C@H]1CC[C@@H]2[C@@H](OC(=O)C23CC(c2ccccc2[N+](=O)[O-])C(c2ccccc2)O3)[C@]2(C)C(=O)C=C[C@@]12O (some centres unmarked) [Compound -32] | 13 µM | 8.4 µM | 28 µM |
| 151 °C | COc1ccc(C2=NOC3(C2)C(=O)O[C@@H]2[C@H]3CC[C@H](C)[C@]3(O)C=CC(=O)[C@@]23C)cc1OC (some centres unmarked) [Compound -80] | 86 µM | – | 84 µM |
